Measured values from US7642239B2, “Inhibition of placenta growth factor (PLGF) mediated metastasis and/or angiogenesis” (Center for Molecular Medicine and Immunology, priority 2005, dated 2010).
Ends that are not written are not given here.

Experiments:
VEGF165 = molecular target: T1, VEGF165 (Homo sapiens, UniProt P15692); experiment: Free peptide binding ELISA (FLAG epitope probe), VEGF-coated wells
T1 construct: purchased R&D Systems
T1 sequence (P15692 27-191 isoform P15692-4): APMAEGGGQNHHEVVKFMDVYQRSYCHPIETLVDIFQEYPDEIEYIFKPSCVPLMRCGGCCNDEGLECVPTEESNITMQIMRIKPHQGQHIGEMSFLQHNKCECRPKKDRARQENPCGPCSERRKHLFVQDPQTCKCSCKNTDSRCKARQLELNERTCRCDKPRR
Experimental: Competition assays were done with 2.5 or 25 U/ml heparin (Sigma, St. Louis, Mo.). BP1, 3, 4, and a scrambled version of BP3 (scrBP3) were synthesized with a linker followed by the FLAG epitope ([…] SEQ ID NO:5) at the C-terminus. Thirty minutes after addition of the first reagent, the second reagent was added, followed by another 30 minute incubation. Peptide binding was assessed by probing for the FLAG epitope (Prickett et al., Biotechniques 7:580-9, 1989; Castrucci et al., J. Virol. 66:4647-53, 1992). Absorbance was read at 490 nm.

MDA-MB-468 = experiment: Matrigel cell invasion assay, MDA-MB-468; format: cell-based, human; conditions: 48 h
Experimental: Cellular invasion was determined by addition of 5×10^4cells to growth factor-reduced Matrigel invasion chambers (BD Biosciences Discovery Labware, Bedford, Mass.) (Taylor et al., 2003b; Passaniti et al., 1992, Lab Invest 67, 519-528). Additives to the Matrigel® plugs were pre-incubated together in a total volume of 100 μl PBS at RT for 10 min, after which each additive was added to the Matrigel. Growth factors (2.0 or 0.2 nM), peptide (2 μg/ml), or antibody (1 μg/ml) were added to cells in low serum (0.1% fetal bovine serum [FBS]) medium. Baseline and chemoattractant-based invasion (10% FBS) were included. The number of invading cells was determined by counting the number of cells on the bottom of the invasion chamber membrane after staining at 100× magnification after 24 h (MDA-MB-231) or 48 h (MCF-7, MDA-MB-468). The results of three to five separate experiments are presented.

MDA-MB-468 xenografts = format: in vivo, mice; conditions: 200 μg/dose i.p., twice-weekly
Experimental: FIG. 5. Treatment of mice bearing MDA-MB-468 xenografts with peptides BP1 or BP3. Mice were treated every 3-4 days with 200 ug BP as described in Methods. Tumor volume was measured 2×/week. *P<0.05 at days 10, 14, 17 and 24 (change in tumor volume (ANOVA)). FIG. 5A—tumors treated with binding peptide 1. FIG. 5B—tumors treated with binding peptide 3.
Mice bearing MDA-MB-468 xenografts (average tumor volume: 0.19 cm^3) were treated with i.p. injections of individual peptides (200 μg/dose) (FIG. 5). After 4 weeks of twice-weekly treatment, tumor growth was inhibited by 49% and 58% in mice treated with BP1 (FIG. 5A) or BP3 (FIG. 5B), respectively. The effect of BP3 on tumor growth was apparent after 2 weeks of treatment (FIG. 5B), whereas the inhibitory effect of BP1 was evident after one week (FIG. 5A). The average changes in individual tumor volumes during treatment with BP1 were significant (P<0.05) at days 10, 14, 17 and 24 (FIG. 5A). Treatment with BP2 was ineffective; tumors continued to grow at almost the same rate as the mock-treated controls (results not shown). BP4 treatment produced a 20% inhibition of tumor growth (results not shown).

binding to VEGF (in words) (VEGF165; ELISA-based binding assay): No measurable binding
binding to VEGF165 (A490) (VEGF165; peptide with C-terminal FLAG epitope): 0.299±0.174
Sequence: SHRYRLAIQLHASDSSSSCV [BP1]
Average fold-change in the number of cells on the membrane compared to untreated controls (MDA-MB-468; PlGF 0.2 nM ± peptide 2 μg/ml): 0.6 ± 0.4 fold
Average fold-change in the number of cells on the membrane compared to untreated controls (MDA-MB-468; peptide 2 μg/ml alone): 1.2 ± 0.3 fold
duration of treatment after which effect on tumor growth was apparent (MDA-MB-468 xenografts): one week
